{"source": "patent US12337010B2", "about": "“Compositions and methods of treatment using nicotinamide mononucleotide” (Washington University, priority 2017, dated 2025)", "key": {"Slc12a8 [1]": {"target": "T1, Slc12a8 (Mus musculus, UniProt Q8VI23)", "T1 construct": "NIH3T3 cells were transfected with 5 μg of pCXN2 carrying the full-length Slc12a8 cDNA (Slc12a8-OE); expressed in transfected cells", "T1 sequence (Q8VI23 1-705)": "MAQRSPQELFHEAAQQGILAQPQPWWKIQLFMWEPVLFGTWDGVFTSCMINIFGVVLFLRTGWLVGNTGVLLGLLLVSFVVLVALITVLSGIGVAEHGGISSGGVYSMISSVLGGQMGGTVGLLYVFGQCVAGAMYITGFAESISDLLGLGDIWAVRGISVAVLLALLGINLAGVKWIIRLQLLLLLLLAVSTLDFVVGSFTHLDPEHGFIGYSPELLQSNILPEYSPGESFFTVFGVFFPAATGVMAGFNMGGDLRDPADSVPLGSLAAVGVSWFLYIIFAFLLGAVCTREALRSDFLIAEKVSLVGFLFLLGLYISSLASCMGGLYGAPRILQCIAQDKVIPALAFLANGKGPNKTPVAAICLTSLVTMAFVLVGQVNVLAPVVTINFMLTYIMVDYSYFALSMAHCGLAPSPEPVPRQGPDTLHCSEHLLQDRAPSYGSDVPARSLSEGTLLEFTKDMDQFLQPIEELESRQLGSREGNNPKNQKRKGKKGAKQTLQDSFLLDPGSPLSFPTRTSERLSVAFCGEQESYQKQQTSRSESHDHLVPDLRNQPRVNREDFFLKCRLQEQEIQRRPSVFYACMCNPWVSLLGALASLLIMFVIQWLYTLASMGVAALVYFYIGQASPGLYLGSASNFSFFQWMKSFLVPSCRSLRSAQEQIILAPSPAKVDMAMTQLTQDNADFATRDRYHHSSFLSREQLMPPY", "assay": "3H-NMN uptake and displacement in Slc12a8-OE proteoliposomes", "assay_type": "biochemical", "settings": "for displacement of 3H-NMN: 150 μM cold compound, 150 nM 3H-NMN, 2 min", "procedure": "Proteoliposome experiments. Proteoliposome preparation was carried out as previously described (Bruzzone, S., et al., FASEB J., 15, 10-12, 2001). Briefly, 2×10^7 control or Slc12a8-OE NIH3T3 cells were resuspended in 1 ml of lysis buffer (10 mM Tris-HCl, pH 8.3, 150 mM NaCl, 0.3 M sucrose, protease inhibitor cocktail) and disrupted using a homogenizer. The lysate was centrifuged for 10 min at 3,000×g, and the supernatant was collected and centrifuged for 15 min at 100,000×g. The membrane proteins were solubilized with buffer A (10 mM Tris-HCl, pH 8.3, containing 150 mM NaCl and 0.5% n-octyl β-glucopyranoside). Separately, total lipids were extracted from hemoglobin-free erythrocyte membranes (ghosts) as described previously (Franco, L., et al., FASEB J., 12, 1507-1520, 1998). Total lipids from human erythrocyte membranes (3 mg) were dried and resuspended with 600 μl of solubilized membrane proteins (at approximately 0.7 mg/ml protein concentration). The resulting emulsions were sonicated in ice for 1 min and dialyzed against 5 liters of buffer A without n-octyl-β-glucopyranoside (dialysis buffer) for 24 h at 4° C. Proteoliposomes were recovered, centrifuged for 15 min at 100,000×g, resuspended in 900 μl dialysis buffer and passed 5 times through a 30-gauge needle.\nTo examine the Na+-dependency of Slc12a8, NaCl was replaced with 150 mM LiCl. All steps were carried out at 4° C. Proteoliposomes (30 μl in triplicate for each condition) were incubated for 2, 5 or 10 min at 25° C. in the presence of […] 3H-β-NMN (specific activity, 9.1 Ci/mmole) with or without label-free nucleotides (NMN, NR, NAD, AMP; NAM or NaMN). At the end of incubations, samples were filtered on a glass fiber paper. Filters were washed with 3 ml of dialysis buffer, dried, and counted for radioactivity.\nProteoliposomes were produced by combining the membrane fractions of Slc12a8-OE or control NIH3T3 cells with the phospholipid bilayers derived from deproteinized erythrocyte plasma membrane as described supra using 22 nM, ^3H-NMN at 25° C. in proteoliposomes produced from plasma membrane fractions of Slc12a8-OE and control NIH3T3 cells in transport buffer (n=3; analyzed by one-way ANOVA with Sidak's multiple comparisons test).\nIn order to determine substrate specificity of Slc12a8, these Slc12a8-OE proteoliposomes were used for displacement experiments with ^3H-NMN and various cold NAD+-related compounds. Uptake of ^3H-NMN (150 nM, 25° C.) was measured at 2 min in Slc12a8-OE proteoliposomes in the presence of 150 μM competing cold compounds (NMN, NR, NAD, AMP, NaMN, and nicotinamide) in transport buffer (n=3, analyzed by ANOVA with Dunnett's test). […] Data are shown as percentages of ^3H-NMN uptake (n=3; IC50 was calculated by non-linear regression analysis).\nIn these experiments, the sodium ion dependency of Slc12a8 for NMN transport was evaluated using the proteoliposome system."}, "Slc12a8 [2]": {"target": "T1, Slc12a8", "assay": "Radiolabeled NMN uptake in Slc12a8-OE and control NIH3T3 cells", "assay_type": "cell-based", "settings": "25 μM, 37° C., 3 and 5 min time points, Slc12a8-OE cells compared to control cells", "procedure": "NMN uptake analyses with radiolabeled NMN. Control and Slc12a8-OE NIH3T3 cells were harvested by centrifugation (400×g, 5 min), washed once in HBSS, and incubated at 37° C. in HBSS [pH 7.5] (5×10^6 cells/ml) containing 100 nM 3H-β-Nicotinamide mononucleotide (9 Ci/mmol; Moravek Biochemicals, CA) and unlabeled NMN to make the final concentration 25 μM. At the designated time points (1, 3, 5 and 10 minutes), aliquots of the cells (100 μl) were collected and placed in 1.5-ml microcentrifuge tubes containing silicone-mineral oil (density, 1.015; Sigma-Aldrich) on the top of 2 M potassium hydroxide solution, followed by centrifugation at 16,000×g for 30s. Cells were separated from the buffer and pelleted through the silicone-mineral oil layer. The radioactivity in these cell pellets was determined by a liquid scintillation counter. For calculating Km and Vmax, the same conditions were used as described above, but with various total concentrations of NMN, ranging from 1 μM to 100 μM. At the 4-min time point, 100 μl of cell suspension was collected and pelleted in the same way described above. The radioactivity in cell pellets was determined by a liquid scintillation counter. The radioactivity measured in control NIH3T3 cells was subtracted to calculate Slc12a8-specific NMN uptake in Slc12a8-OE NIH3T3 cells.\nUptake of NMN was measured as described in methods under “NMN uptake analyses with radiolabeled NMN” using 25 μM ^3H-NMN at 37° C. in control and Slc12a8-OE NIH3T3 cells over 10 min in Hanks' buffer [ph7.5] with Mg2+ and Ca2+ (n=12; analyzed by ANOVA with Sidak's test). […] This Km is qualitatively consistent with a detected range of NMN concentrations in mouse plasma and erythrocytes (Revollo, J. R. et al., Cell Metab., 6, 363-375, 2007; Ramsey, K. M., et al., Science, 324, 651-654, 2009; Yamada, K., et al., Anal. Biochem., 352, 282-285, 2006)."}, "Slc12a8 gene": {"tested_on": "Slc12a8 gene", "assay": "Microarray gene expression profiling of FK866-treated primary cultures", "assay_type": "cell-based, mouse", "procedure": "Microarray Analysis. Total RNA was isolated from primary hepatocytes, pancreatic islets, and hippocampal neurospheres, treated with 0.1% DMSO (control) or FK866 (200 nM for primary hepatocytes, and 10 nM for pancreatic islets and hippocampal neurospheres). To determine transcriptional changes induced by FK866 treatment, microarray analyses were conducted using the Illumina Mouse Ref 8 whole genome microarrays (version 2). […] All data were analyzed by the R statistical software package.\nSlc12a8 was identified in the section of the Venn diagram in FIG. 1 indicated by an arrow. The Slc12a8 gene belongs to the SLC12 gene family of the electroneutral cation-chloride-coupled co-transporters, and the function of the protein encoded by this gene remains unknown (Hebert, S. C., et al., Pflugers Arch. 447, 580-593, 2004)."}, "Slc12a8 mRNA expression": {"tested_on": "Slc12a8 mRNA expression", "assay": "Slc12a8 mRNA expression by quantitative RT-PCR in cells and ex vivo small intestine explants", "assay_type": "cell-based, mouse", "settings": "FK866 alone; primary hepatocytes, NIH3T3 fibroblasts (24 h), jejunum and ileum explants (4 h)", "procedure": "Cell culture and ex vivo small intestine explant culture. […] For Slc12a8 mRNA expression analysis, 2.5×10^5 cells per well were incubated in 6-well plates with DMEM with 1% FBS containing 0.1% DMSO or 100 nM FK866 or 100 nM FK866 plus 100 μM NMN for 24 h. Small intestines from 3-month old B6 male mice were cut into three segments with duodenum/jejunum/ileum length ratios of 1:3:2 (Wang, H. H., et al., Hepatology 45, 998-1006, 2007). […] Cellular and tissue RNA samples were analyzed by quantitative RT-PCR, as described previously (Stein, L. R. & Imai, S., EMBO J., 33, 1321-1340, 2014).\nThe amounts of adenosine produced were determined by HPLC. […] Silencing efficiencies were evaluated by quantitative RT-PCR.\nFIG. 2 illustrates that Slc12a8 is highly expressed in the small intestine and pancreas and moderately in the liver and white adipose tissue of B6 male mice at 3 months of age (n=3 mice). […] Cells were treated with these compounds for 24 h (n=4 mice for hepatocytes treated with DMSO and FK866, and n=3 mice for hepatocytes treated with FK866 and NMN; n=6 for NIH3T3 cells; analyzed using ANOVA with Tukey's test). FIG. 5 illustrates surface and intracellular Slc12a8 protein expression levels were measured by flow cytometry analysis in NIH3T3 cells treated with FK866 or FK866 plus NMN for 48h. […]"}}, "data": [{"molecule": "3H-β-Nicotinamide mononucleotide [^3H-NMN]", "values": [{"measurement": "3H-NMN incorporation", "setting": "Slc12a8 [1]; 22 nM, 25° C., within 2 min, Slc12a8-OE-derived vs control-derived proteoliposomes", "value": "significantly higher levels"}, {"measurement": "uptake of 3H-NMN", "setting": "Slc12a8 [2]", "value": "significantly enhanced"}]}, {"molecule": "Nc1ncnc2c1ncn2[C@@H]1O[C@H](COP(=O)(O)O)[C@@H](O)[C@H]1O", "note": "[AMP, adenosine monophosphate]", "values": [{"measurement": "displacement of 3H-NMN", "setting": "Slc12a8 [1]; 25° C.", "value": "very low or negligible displacement"}]}, {"molecule": "O=C(/C=C/c1cccnc1)NCCCCC1CCN(C(=O)c2ccccc2)CC1", "note": "[FK866]", "values": [{"measurement": "Slc12a8 Z ratio", "setting": "Slc12a8 gene; hippocampal neurospheres, 10 nM FK866 vs 0.1% DMSO", "value": 4.91}, {"measurement": "Slc12a8 Z ratio", "setting": "Slc12a8 gene; pancreatic islets, 10 nM FK866 vs 0.1% DMSO", "value": 1.69}, {"measurement": "Slc12a8 Z ratio", "setting": "Slc12a8 gene; primary hepatocytes, 200 nM FK866 vs 0.1% DMSO", "value": 2.06}, {"measurement": "Slc12a8 expression", "setting": "Slc12a8 mRNA expression", "value": "induced significantly"}]}, {"molecule": "O=C(O)c1cccnc1", "note": "[NA, nicotinic acid]", "values": [{"measurement": "effect on uptake of 3H-NMN", "setting": "Slc12a8 [1]; Slc12a8-overexpressing proteoliposomes", "value": "able to enhance the uptake"}]}, {"molecule": "NC(=O)c1ccc[n+]([C@@H]2O[C@H](COP(=O)([O-])OP(=O)(O)OC[C@H]3O[C@@H](n4cnc5c(N)ncnc54)[C@H](O)[C@@H]3O)[C@@H](O)[C@H]2O)c1", "note": "[NAD+]", "values": [{"measurement": "displacement of 3H-NMN", "setting": "Slc12a8 [1]; 25° C.", "value": "very low or negligible displacement"}]}, {"molecule": "NC(=O)c1ccc[n+]([C@@H]2O[C@H](CO)[C@@H](O)[C@H]2O)c1", "note": "[NR, nicotinamide riboside]", "values": [{"measurement": "displacement of 3H-NMN", "setting": "Slc12a8 [1]; 25° C.", "value": "~70", "unit": "%"}, {"measurement": "IC50", "setting": "Slc12a8 [1]; Slc12a8-OE proteoliposome system", "value": "77.4 ± 10.8", "unit": "µM"}]}, {"molecule": "O=C(O)c1ccc[n+]([C@@H]2O[C@H](COP(=O)(O)O)[C@@H](O)[C@H]2O)c1", "note": "[NaMN, nicotinic acid mononucleotide]", "values": [{"measurement": "displacement of 3H-NMN", "setting": "Slc12a8 [1]; 25° C.", "value": "very low or negligible displacement"}]}, {"molecule": "NC(=O)c1cccnc1", "note": "[nicotinamide]", "values": [{"measurement": "displacement of 3H-NMN", "setting": "Slc12a8 [1]; 25° C.", "value": "very low or negligible displacement"}]}]}
